Assay results as given in paper PMC11976443 (2025).

Test system: 5' FAM-CoA-seq10 aptamer (DNA, aptamer) ATGCAGTCGGCGTCGGACAGGCAAAGGGGAGAGTGATTATAATCACTCGGGACATGGGATCTGTCCGACGATGTAACGCTTCAC
Assay: fluorescence strand displacement
Details: apparent; 50 nM aptamer, 1:5 3'-BHQ1 capture strand CTGTCCGACGCCGAC displaced

Question: `CC(C)(COP(=O)(O)OP(=O)(O)OC[C@H]1O[C@@H](n2cnc3c(N)ncnc32)[C@H](O)[C@@H]1OP(=O)(O)O)[C@@H](O)C(=O)NCCC(=O)NCCS` was tested. Which Kd did it give?
Answer: 1133 µM
